The text below walks through data of patent US9724506B2, “Nanopillar electrode devices and methods of recording action potentials” (The Board of Trustees of the Leland Stanford Junior …, priority 2013, dated 2017).

Structures are written as SMILES. Where “and” joins values, the source holds several entries; their conditions need not be identical. Equal values may be shown once.

The test relates to HL-1 cells. In words: Nanopillar electrode intracellular recording of HL-1 action potentials after electroporation, before and after ion-channel drug. The format is cell-based, mouse. Particulars: for APD50 after drug: 10 min incubation, 4 different HL-1 cells in 3 cultures, same cell recorded before and after drug; for APD50 change (%): APD50 after drug versus before drug on the same HL-1 cell. The procedure: The HL-1 cardiomyocyte cell line was obtained from the laboratory of William C. Claycomb at Louisiana State University. Before plating, the nanopillar electrode device was cleaned with detergent and deionized water, followed by 5 minutes of oxygen plasma treatment. The culture chamber was coated with 5 Δg ml^−1 fibronectin in 0.02% gelatin solution overnight to facilitate cell attachment (Claycomb et al. (1998) Proc. Natl. Acad. Sci. USA 95:2979-2984). HL-1 cells were then plated inside the chamber at a density of ˜1×10^5 cm^−2 and were maintained in the Claycomb medium supplemented with 10% fetal bovine serum, 0.1 mM norepinephrine, 2 mM L-glutamine and 100 U ml^−1 penicillin and 100 Δg ml^−1 streptomycin. The cells were maintained in a standard incubator at 37° C. and 5% CO2. Medium was changed every 24 hours. […] Fluorescent imaging of calcein dye was performed with a 470 nm excitation filter and a 525 nm emission filter.
A 60-channel voltage amplifier system (Multichannel System, MEA1060) was used to record HL-1 cells cultured on the nanopillar electrode arrays (nine nanopillars per array) after the cells started beating. Recording was performed in the same culture medium at 37° C. with an Ag/AgCl electrode in the medium as the reference electrode. The amplification was typically 110× for intracellular recording or 1,100× for extracellular recording, and the sampling rate was 5-20 kHz. The signal was filtered with a band-pass of 1 Hz-5 kHz. For electroporation, 20 biphasic pulses of 2.5 Vamp were applied to a nanopillar electrode in a total time of 1 second. The recording system was blanked during the electroporation period. Electrophysiology recordings were resumed 20-40 seconds after electroporation to avoid amplifier saturation.
For control experiments, we electroporated the cells to record action potentials in the absence of drugs. After the cells had recovered for a few hours, nifedipine or tetraethyl-ammonium of different concentrations was added to the culture medium and the cultures incubated for 10 minutes. Subsequently, another electroporation was applied to record the action potentials of the drug-treated cells.

Setting [1] is: 10 mM tetraethylammonium, HL-1 cells, versus control recording without drug (FIG. 5).

With `COC(=O)C1=C(C)NC(C)=C(C(=O)OC)C1c1ccccc1[N+](=O)[O-]` [nifedipine], for the setting “100 nM nifedepine”, the APD50 after drug was 41.52 ms and 43.40 ms and 40.92 ms and 33.39 ms; the “APD50 change (%)” value was 93.8% and 93.6% and 94.0% and 92.9%.

On to `CC[N+](CC)(CC)CC` [tetraethylammonium], for which, for the setting “1 mM tetraethylammonium”, the APD50 after drug was 50.54 ms and 45.74 ms and 48.78 ms and 54.93 ms; the “APD50 change (%)” value is 109.9% and 110.5% and 111.1% and 109.8%. Also, under setting [1], the APD50 entry is reported as “increasing APD50” and the action potential period entry is reported as “decreasing the period”. Also, the “APD50 relative to the control” value (FIG. 5c, four different HL-1 cells on three different cultures per drug) was “increase”.
